Active and inactive are the calls of the source.
What was measured:
[1] = NIH-3T3 fibroblast cytotoxicity, dose response, cytotoxicity control, cell-based, fluorescence, Alamar Blue, secondary assay (AID 2327); type: functional;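 note: NIH-3T3 mouse fibroblasts cultured with fluconazole at 8 µg/mL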
Fatty acid synthase [2] = target: T1, Fatty acid synthase (Homo sapiens, UniProt P49327); assay: inhibition of human FAS-TE enzyme activity – biochemical, endpoint fluorescence intensity, uHTS hits, dose response (AID 624327); type: functional;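 note: fluorescence from hydrolysis of an O-methyl fluorescein acyl ester substrate by the enzyme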
T1 sequence (P49327 whole entry): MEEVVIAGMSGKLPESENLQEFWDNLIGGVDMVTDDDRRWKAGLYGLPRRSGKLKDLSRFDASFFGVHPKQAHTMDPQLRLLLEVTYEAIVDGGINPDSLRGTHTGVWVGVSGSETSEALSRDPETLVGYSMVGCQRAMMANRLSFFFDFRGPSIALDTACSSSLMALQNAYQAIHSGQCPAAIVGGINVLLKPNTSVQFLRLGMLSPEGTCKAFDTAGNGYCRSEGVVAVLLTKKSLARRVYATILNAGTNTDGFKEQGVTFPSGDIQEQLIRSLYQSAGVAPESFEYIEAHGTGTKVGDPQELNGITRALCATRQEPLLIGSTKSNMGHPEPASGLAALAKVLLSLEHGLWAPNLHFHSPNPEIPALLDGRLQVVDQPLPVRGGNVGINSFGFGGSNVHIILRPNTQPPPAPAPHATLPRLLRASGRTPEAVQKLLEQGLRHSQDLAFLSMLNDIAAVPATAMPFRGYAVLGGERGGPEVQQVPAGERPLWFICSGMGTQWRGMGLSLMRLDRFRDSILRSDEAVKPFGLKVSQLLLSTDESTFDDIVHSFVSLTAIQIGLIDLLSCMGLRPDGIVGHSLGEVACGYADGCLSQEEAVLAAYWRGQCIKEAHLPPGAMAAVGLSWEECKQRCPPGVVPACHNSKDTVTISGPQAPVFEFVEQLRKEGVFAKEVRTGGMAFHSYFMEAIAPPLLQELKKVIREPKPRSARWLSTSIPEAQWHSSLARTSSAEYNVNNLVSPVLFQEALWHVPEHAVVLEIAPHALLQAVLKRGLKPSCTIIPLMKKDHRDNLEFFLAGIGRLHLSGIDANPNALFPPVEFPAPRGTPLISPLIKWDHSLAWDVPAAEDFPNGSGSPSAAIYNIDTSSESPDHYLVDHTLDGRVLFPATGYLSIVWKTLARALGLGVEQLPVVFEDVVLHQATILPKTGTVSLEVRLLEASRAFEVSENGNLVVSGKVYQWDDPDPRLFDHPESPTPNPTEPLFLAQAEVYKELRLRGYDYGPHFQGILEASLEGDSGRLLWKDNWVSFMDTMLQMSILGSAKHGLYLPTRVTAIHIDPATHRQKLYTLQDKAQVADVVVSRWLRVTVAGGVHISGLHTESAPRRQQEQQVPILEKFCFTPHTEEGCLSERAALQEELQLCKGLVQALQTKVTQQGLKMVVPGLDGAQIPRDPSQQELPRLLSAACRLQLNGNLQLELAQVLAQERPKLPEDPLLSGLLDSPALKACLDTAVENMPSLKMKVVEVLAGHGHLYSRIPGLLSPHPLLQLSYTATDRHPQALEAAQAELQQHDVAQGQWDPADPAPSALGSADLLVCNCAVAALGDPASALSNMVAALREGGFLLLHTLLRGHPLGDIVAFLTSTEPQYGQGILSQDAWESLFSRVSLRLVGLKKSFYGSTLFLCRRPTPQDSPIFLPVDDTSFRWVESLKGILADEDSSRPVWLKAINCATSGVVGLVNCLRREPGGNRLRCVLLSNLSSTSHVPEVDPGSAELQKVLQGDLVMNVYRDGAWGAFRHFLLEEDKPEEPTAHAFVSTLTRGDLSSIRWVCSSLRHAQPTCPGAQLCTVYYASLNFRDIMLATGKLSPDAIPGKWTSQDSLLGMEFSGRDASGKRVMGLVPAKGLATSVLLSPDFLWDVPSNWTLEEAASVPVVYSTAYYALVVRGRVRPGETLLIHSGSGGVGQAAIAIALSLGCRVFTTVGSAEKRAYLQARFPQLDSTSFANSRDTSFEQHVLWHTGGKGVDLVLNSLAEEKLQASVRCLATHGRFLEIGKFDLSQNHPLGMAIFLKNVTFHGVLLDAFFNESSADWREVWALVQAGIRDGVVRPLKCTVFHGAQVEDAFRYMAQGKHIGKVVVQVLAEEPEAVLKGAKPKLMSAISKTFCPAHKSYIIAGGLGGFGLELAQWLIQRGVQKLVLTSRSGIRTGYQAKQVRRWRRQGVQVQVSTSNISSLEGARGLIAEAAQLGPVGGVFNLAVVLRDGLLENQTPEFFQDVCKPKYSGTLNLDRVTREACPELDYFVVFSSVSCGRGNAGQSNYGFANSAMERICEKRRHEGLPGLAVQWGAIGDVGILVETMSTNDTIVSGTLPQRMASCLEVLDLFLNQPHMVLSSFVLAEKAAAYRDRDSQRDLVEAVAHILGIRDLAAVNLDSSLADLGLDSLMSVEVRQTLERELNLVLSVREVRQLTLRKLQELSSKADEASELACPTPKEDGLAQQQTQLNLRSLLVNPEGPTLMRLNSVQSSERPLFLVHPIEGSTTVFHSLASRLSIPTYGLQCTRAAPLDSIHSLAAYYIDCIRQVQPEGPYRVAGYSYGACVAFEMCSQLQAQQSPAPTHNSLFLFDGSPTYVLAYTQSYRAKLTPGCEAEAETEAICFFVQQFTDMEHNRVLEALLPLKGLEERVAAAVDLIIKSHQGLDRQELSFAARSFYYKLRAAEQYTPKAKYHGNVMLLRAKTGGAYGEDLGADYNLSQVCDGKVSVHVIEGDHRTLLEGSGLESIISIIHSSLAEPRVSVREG

Fatty acid synthase [3] = target: T1, Fatty acid synthase; assay: inhibition of human FAS-TE enzyme activity – biochemical, kinetic fluorescence intensity, dose response (AID 624326); type: functional;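 note: rate of fluorescence rise from hydrolysis of a fluorogenic O-methyl fluorescein ester substrate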
Cytochrome P450 2C19 = Cytochrome P450 2C19 (Homo sapiens, UniProt P33261); assay: Cytochrome panel assay with activity outcomes. Panel member name: p450-cyp2c19 Compounds with AC50 equal or less than 10 uM are considered active; type: functional; conditions: read-out: AC50
Chain of Cytochrome P450 2C19 (P33261 whole entry): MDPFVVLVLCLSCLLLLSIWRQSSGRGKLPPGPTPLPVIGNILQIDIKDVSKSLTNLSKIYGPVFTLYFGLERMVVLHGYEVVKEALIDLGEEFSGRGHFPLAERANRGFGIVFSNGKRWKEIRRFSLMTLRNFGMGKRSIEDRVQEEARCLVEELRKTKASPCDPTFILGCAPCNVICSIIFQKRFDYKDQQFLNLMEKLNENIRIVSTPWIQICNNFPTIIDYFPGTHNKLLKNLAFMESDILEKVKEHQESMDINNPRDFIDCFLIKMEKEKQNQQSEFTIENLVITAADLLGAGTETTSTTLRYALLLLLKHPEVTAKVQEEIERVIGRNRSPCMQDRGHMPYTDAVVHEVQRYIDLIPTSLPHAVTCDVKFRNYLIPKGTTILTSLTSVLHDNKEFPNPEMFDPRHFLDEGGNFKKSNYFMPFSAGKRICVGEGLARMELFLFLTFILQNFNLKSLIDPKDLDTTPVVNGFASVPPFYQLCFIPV

Cytochrome P450 3A4 = Cytochrome P450 3A4 (Homo sapiens, UniProt P08684);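 note: CYP3A4 tested as one member of a cytochrome P450 panel screen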
Chain of Cytochrome P450 3A4 (P08684 whole entry): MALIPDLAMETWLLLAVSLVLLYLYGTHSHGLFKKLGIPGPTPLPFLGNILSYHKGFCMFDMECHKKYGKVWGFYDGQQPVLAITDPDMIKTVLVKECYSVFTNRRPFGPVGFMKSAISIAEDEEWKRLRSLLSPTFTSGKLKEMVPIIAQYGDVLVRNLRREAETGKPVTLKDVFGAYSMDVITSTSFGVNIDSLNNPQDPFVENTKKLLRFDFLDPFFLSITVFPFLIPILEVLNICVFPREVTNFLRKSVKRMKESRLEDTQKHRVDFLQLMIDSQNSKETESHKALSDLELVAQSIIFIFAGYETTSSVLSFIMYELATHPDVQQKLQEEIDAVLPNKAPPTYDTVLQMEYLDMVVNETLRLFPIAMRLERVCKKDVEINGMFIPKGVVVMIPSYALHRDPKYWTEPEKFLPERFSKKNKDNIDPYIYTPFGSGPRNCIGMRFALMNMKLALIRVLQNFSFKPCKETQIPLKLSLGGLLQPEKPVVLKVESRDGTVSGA

Cytochrome P450 2C9 [4] = target: T2, Cytochrome P450 2C9 (Homo sapiens, UniProt P11712)
T2 sequence (P11712 whole entry): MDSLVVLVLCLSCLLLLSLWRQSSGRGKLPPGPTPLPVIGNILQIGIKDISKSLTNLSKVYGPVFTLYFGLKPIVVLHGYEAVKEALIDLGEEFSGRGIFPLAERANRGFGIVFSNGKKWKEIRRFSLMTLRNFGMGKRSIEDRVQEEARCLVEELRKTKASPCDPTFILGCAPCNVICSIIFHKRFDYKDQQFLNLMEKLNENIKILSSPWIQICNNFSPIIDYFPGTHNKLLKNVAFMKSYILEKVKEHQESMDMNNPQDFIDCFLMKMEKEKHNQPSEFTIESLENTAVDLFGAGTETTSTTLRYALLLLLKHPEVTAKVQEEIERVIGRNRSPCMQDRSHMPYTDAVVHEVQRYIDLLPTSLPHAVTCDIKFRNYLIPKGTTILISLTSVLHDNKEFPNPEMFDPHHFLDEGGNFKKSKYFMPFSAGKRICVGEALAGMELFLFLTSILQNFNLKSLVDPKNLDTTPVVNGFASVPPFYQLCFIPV

Cytochrome P450 1A2 = target: T3, Cytochrome P450 1A2 (Homo sapiens, UniProt P05177);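 note: PubChem cytochrome P450 panel assay, CYP1A2 panel member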
T3 sequence (P05177 whole entry): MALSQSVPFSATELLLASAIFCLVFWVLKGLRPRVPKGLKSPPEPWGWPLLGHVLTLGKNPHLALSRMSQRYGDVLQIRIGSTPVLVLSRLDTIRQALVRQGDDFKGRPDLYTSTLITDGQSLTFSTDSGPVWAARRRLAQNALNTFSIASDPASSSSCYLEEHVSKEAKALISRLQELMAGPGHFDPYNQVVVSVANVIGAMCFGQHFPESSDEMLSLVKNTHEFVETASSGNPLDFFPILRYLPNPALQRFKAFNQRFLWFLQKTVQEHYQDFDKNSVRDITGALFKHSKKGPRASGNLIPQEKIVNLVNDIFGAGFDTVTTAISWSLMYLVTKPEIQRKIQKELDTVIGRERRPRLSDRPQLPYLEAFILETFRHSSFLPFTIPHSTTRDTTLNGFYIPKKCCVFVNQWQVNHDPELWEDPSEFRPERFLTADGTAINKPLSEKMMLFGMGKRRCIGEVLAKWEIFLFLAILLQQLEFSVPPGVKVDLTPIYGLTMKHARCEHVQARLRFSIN

[5] = microbe, parasite or virus in culture; type: functional; conditions: Mycobacterium tuberculosis
[6] = tested on: Streptococcus sp. 'group A'; assay: Streptococcus pyogenes SK(-)GAS viability under kanamycin – luminescence, BacTiterGlo, confirmation, counter-screen for streptokinase expression inhibitor project, dose response (AID 1900); type: functional, organism-based
Streptokinase A = target: T4, Streptokinase A (Streptococcus pyogenes serotype M1, UniProt P10520); assay: viability-normalized secreted streptokinase activity reduction – plasminogen activation absorbance, OD405, dose response (AID 1914); type: functional, Streptococcus pyogenes M1 GAS;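 note: secreted streptokinase activity via plasminogen activation per viability signal from cell pellet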
T4 sequence (P10520 whole entry): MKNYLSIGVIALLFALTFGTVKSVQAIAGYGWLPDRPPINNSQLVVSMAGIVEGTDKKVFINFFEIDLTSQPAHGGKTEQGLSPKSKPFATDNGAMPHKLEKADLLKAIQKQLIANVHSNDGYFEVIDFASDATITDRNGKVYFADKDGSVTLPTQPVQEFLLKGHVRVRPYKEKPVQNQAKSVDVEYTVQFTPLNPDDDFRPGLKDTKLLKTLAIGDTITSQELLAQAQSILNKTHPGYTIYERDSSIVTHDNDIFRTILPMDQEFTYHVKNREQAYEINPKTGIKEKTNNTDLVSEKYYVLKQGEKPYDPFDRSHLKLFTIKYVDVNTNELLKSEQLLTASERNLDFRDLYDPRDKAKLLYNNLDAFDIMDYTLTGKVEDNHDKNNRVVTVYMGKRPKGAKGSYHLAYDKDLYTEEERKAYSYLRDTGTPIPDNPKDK

[7] = Trypanosoma cruzi growth suppression in host cells – NIH3T3 host cells, beta-gal luminescence, confirmation (AID 2044); type: functional, cell-based;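 note: intracellular parasites grown in NIH/3T3 mouse fibroblasts as host cells; luminescent beta-galactosidase reporter signal from transgenic T. cruzi replicating inside host cells; inhibitors lower the luminescence signal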
[8] = NIH3T3 cell viability loss – ATP luminescence, mouse fibroblasts, counter-screen, dose response (AID 2010); type: functional, cell-based;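 note: cells exposed to compound for about 90 hours before reading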
Streptococcus = assay: GAS UMAA2166 growth inhibition – luminescence, BacTiterGlo, counter-screen for streptokinase expression inhibitor project, dose response (AID 1915); type: functional, organism-based;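 note: potency for reduction of bacterial viability or growth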
Cytochrome P450 2C9 [9] = target: T2, Cytochrome P450 2C9; remark: listed apart in the source

Row | Structure (SMILES) | IC50 (Fatty acid synthase [2]) | IC50 (Fatty acid synthase [3]) | AC50 (Cytochrome P450 2C19) | AC50 (Cytochrome P450 2C9 [4]) | other results
1 | CCS(=O)(=O)c1ccc(-c2cccc(NC(=O)COc3ccc(Cl)cc3)c2)nn1 |  |  |  |  | EC50 [1]: > 150 µM (inactive)
2 | NP(=O)(Oc1ccccc1Cl)Oc1ccccc1Cl | 5.09 µM (active) | 8.31 µM (active) |  |  | 
3 | COc1ccc(C2=NN(C(=O)CSc3nc(=O)n4cc(C)ccc4n3)C(c3ccc(C)cc3)C2)cc1 (stereo not drawn) | 19.2 µM (active) | 12.9 µM (active) |  |  | 
4 | COC(=O)CCC(=O)NNC(=O)CCCOc1ccc(Cl)cc1Cl |  |  | 3.55 µM (inconclusive) | inconclusive | AC50 (Cytochrome P450 3A4): 15.8 µM (inconclusive)
5 | CCn1c(C)c(C(C)=O)c(N2CCN(C(c3ccccc3)c3ccccc3)CC2)nc1=S | 8.43 µM (active) | 23.1 µM (inactive) |  |  | 
6 | Cc1cc(C)cc(-n2nnnc2SCC(=O)Nc2nc(-c3ccc(F)cc3)cs2)c1 |  |  | 5.01 µM (inconclusive) | inconclusive | AC50 (Cytochrome P450 1A2): 3.16 µM (inconclusive)
7 | COc1ccc(N2COC3c4cccc5cccc(c45)C32)cc1 (stereo not drawn) |  |  |  |  | CC50 [5]: > 40 µM (active)
8 | Cc1cccc(NC(=O)c2[nH]cnc2C(=O)N[C@@H](CCCCNC(=O)OC(C)(C)C)C(=O)OC(C)(C)C)c1 | 1.12 µM (active) | 0.658 µM (active) |  |  | EC50 [6]: 3.46 µM (active); EC50 (Streptokinase A): > 150 µM (not active); EC50 [7]: 2.44 µM (active); EC50 [8]: > 60 µM (not active); EC50 (Streptococcus): 8.6 µM (active)
9 | CCCCCCCC/C=C\CCCCCCCC(=O)N[C@@H](CO)Cc1ccc(O)cc1 |  |  | 31.6 µM (inconclusive) | inconclusive | AC50 (Cytochrome P450 1A2): 25.1 µM (inconclusive)
10 | Cc1ccc(OC(=O)c2oc3ccc(F)cc3c2C)c(C)c1 |  |  | 11.2 µM (inconclusive) |  | CC50 [5]: 3.94 µM (active); AC50 (Cytochrome P450 3A4): 39.8 µM (inconclusive); AC50 (Cytochrome P450 2C9 [9]): 10 µM (inconclusive)

Source: ChEMBL document CHEMBL1201862, “PubChem BioAssay data set” (2004)
